In US11179399B2, “6-heterocyclyl-4-morpholin-4-ylpyridine-2-one compounds useful for the treatment of cancer and diabetes” (Sprint Bioscience AB, priority 2016, dated 2021) one finds IC50 data, which are given here for 40 compounds.

Vps34 enzyme, sequence (Q8NEB9 whole entry): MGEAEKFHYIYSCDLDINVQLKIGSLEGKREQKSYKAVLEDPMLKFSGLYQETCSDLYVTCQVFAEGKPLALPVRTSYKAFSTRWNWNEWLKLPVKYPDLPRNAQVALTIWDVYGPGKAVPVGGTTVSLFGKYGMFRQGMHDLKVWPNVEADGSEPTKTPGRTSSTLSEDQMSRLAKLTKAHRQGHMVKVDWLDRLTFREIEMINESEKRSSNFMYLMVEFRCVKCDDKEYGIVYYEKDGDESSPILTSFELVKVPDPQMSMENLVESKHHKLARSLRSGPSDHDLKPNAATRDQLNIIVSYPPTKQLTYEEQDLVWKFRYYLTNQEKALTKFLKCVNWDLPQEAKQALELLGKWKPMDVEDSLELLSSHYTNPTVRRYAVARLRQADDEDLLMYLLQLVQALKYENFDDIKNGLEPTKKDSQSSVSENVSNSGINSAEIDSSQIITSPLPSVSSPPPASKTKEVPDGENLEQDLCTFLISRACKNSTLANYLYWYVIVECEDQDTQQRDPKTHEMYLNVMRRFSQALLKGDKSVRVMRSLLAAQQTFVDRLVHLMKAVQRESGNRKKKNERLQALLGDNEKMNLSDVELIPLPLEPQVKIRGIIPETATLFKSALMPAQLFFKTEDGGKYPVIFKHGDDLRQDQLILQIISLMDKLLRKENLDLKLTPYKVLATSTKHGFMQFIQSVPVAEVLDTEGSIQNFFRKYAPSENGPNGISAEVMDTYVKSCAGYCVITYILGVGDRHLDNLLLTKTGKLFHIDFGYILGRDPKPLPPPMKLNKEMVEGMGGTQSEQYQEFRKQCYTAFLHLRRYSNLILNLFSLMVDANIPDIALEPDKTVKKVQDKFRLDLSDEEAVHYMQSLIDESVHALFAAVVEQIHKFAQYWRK

The assay addresses Vps34 enzyme (Homo sapiens (Human), UniProt Q8NEB9). The experiment in a line: Vps34 biochemical assay (Adapta kinase assay). The conditions noted are these: 20 μM ATP and 200 μM PI:PS in substrate mix, 1 h at room temperature, read-out: Median IC50 uM Adapta. The protocol:
Dilution series of compounds of the invention were prepared in DMSO at 100 times the final assay concentration (n1=n0/3 in 10 points). The compounds were further diluted to 4 times the assay concentration in assay buffer (Life technologies buffer Q, PV5125, diluted 5 times supplemented with 2 mM DTT and 2 mM MnCl2). 2.5 μl of the diluted compounds were added to a 384 well assay plate followed by 2.5 μl of 16.5 nM Vps34 enzyme (Life technologies, PV5126). Enzyme and compounds were pre-incubated at rt for 15 min. Then 5 μl of substrate mix containing 20 μM ATP (Life technologies, PV3227) and 200 μM PI:PS substrate (Life technologies, PV5122) in assay buffer was added to the wells containing compound and enzyme. Mixing was performed by pipetting several times. The reaction was incubated at room temperature for 1 h. Then 5 μl stop-detection mix, prepared as described in the Adapta kinase assay kit instructions (Life technologies, PV5099) containing Adapta Eu-anti-ADP antibody (2.3 nM), Alexa Fluor 647 ADP tracer (9 nM) and EDTA (30 mM) in TR-FRET buffer, was added to quench the reaction. Mixing was performed by pipetting several times. The assay plate was then incubated at room temperature for 30 min and read with Artemis micro plate reader. Percent inhibition of the compounds as compared to DMSO treated control samples was calculated. By the use of Dotmatics software compound concentration versus percent inhibition was fitted to generate IC50 values.
The term IC50 denotes the concentration that gives 50% inhibition. Take `Cc1ccc(C2CCCN2c2cc(N3CCOC[C@H]3C)cc(=O)[nH]2)o1` (single isomer, unassigned) [Example 22_2]: the concentration for half-maximal inhibition (IC50) was found to be 0.1 µM. In the case of `C[C@@H]1COCCN1c1cc(N2CCCC2c2cccc(OC(F)(F)F)c2)[nH]c(=O)c1` (single isomer, unassigned) [Example 15_2] it was 0.2 µM. In the case of `C[C@@H]1COCCN1c1cc(N2CCOCC2C2CC2)[nH]c(=O)c1` (stereo partly drawn) [Example 33, 6-(3-cyclopropylmorpholin-4-yl)-4-[(3R)-3-methylmorpholin-4-yl]-1H-pyridin-2-one] it was 0.03 µM. In the case of `Cc1cc(C2CCCN2c2cc(N3CCOC[C@H]3C)cc(=O)[nH]2)no1` (mixture of isomers) [Example 40, (R) and (S) 6-[2-(5-methylisoxazol-3-yl)pyrrolidin-1-yl]-4-[(3R)-3-methylmorpholin-4-yl]-1H-pyridin-2-one] it was 0.1 µM; in that of `C[C@@H]1COCCN1c1cc(N2CCCC2c2ccccn2)[nH]c(=O)c1` (single isomer, unassigned) [Example 38_2], 0.2 µM; in that of `CCn1ccc(C2CCCN2c2cc(N3CCOC[C@H]3C)cc(=O)[nH]2)n1` (single isomer, unassigned) [Example 21_1], 0.1 µM. Turning to `COC(C)(C)C1CCCN1c1cc(N2CCOC[C@H]2C)cc(=O)[nH]1` (mixture of isomers) [Example 11, (R) and (S) 6-[2-(1-methoxy-1-methyl-ethyl)pyrrolidin-1-yl]-4-[(3R)-3-methylmorpholin-4-yl]-1H-pyridin-2-one], the half-inhibitory concentration (IC50) came out at 0.09 µM.

On to `C[C@@H]1COCCN1c1cc(N2CCCC2C2CCCCC2)[nH]c(=O)c1` (mixture of isomers) [Example 12, (R) and (S) 6-(2-cyclohexylpyrrolidin-1-yl)-4-[(3R)-3-methylmorpholin-4-yl]-1H-pyridin-2-one], for which the IC50 is 0.09 µM. In the case of `C[C@@H]1COCCN1c1cc(N2CCN(C(=O)C3CCCO3)CC2C(F)(F)F)[nH]c(=O)c1` (single isomer, unassigned) [Example 48_2] it was 0.02 µM. Consider `Cc1ccc(C2CCCN2c2cc(N3CCOC[C@H]3C)cc(=O)[nH]2)o1` (single isomer, unassigned) [Example 22_1], for which the IC50 worked out at 0.04 µM.

Regarding `C[C@@H]1COCCN1c1cc(N2CCCC2c2ccccc2)[nH]c(=O)c1` (single isomer, unassigned) [Example 18_1], the IC50 is 0.07 µM. With `C[C@@H]1COCCN1c1cc(N2CCN(C(=O)c3cncc(F)c3)CC2C(F)(F)F)[nH]c(=O)c1` (stereo partly drawn) [Example 46, 6-[4-(5-fluoropyridine-3-carbonyl)-2-(trifluoromethyl)piperazin-1-yl]-4-[(3R)-3-methylmorpholin-4-yl]-1H-pyridin-2-one], the IC50 worked out at 0.005 µM. As to `C[C@@H]1COCCN1c1cc(N2CCCC2c2cnn(C)c2)[nH]c(=O)c1` (mixture of isomers) [Example 19, (R) and (S) 4-[(3R)-3-methylmorpholin-4-yl]-6-[2-(1-methylpyrazol-4-yl)pyrrolidin-1-yl]-1H-pyridin-2-one], the IC50 turned out to be 0.1 µM. Consider `C[C@@H]1COCCN1c1cc(N2CCCC2c2cccc(OC(F)(F)F)c2)[nH]c(=O)c1` (single isomer, unassigned) [Example 15_1], for which the IC50 was determined as 0.2 µM. As for `Cc1cc(C2CCCN2c2cc(N3CCOC[C@H]3C)cc(=O)[nH]2)nn1C` (single isomer, unassigned) [Example 20_1], the figure is 0.06 µM; as for `C[C@@H]1COCCN1c1cc(N2CCC[C@H]2C(F)(F)F)[nH]c(=O)c1` [Example 34, 4-[(3R)-3-methylmorpholin-4-yl]-6-[(2S)-2-(trifluoromethyl)pyrrolidin-1-yl]-1H-pyridin-2-one], 0.1 µM; as for `Cc1cc(C2CCCN2c2cc(N3CCOC[C@H]3C)cc(=O)[nH]2)no1` (single isomer, unassigned) [Example 40_1], 0.1 µM. As for `C[C@@H]1COCCN1c1cc(N2CCCC2c2nccs2)[nH]c(=O)c1` (mixture of isomers) [Example 39, (R) and (S) 4-[(3R)-3-methylmorpholin-4-yl]-6-(2-thiazol-2-ylpyrrolidin-1-yl)-1H-pyridin-2-one], the figure is 0.05 µM. In the case of `CC(=O)N1CCN(c2cc(N3CCOC[C@H]3C)cc(=O)[nH]2)CC1` [Example 29, 6-(4-acetylpiperazin-1-yl)-4-[(3R)-3-methylmorpholin-4-yl]-1H-pyridin-2-one] it was 0.2 µM; in that of `C[C@@H]1COCCN1c1cc(N2CCCC2c2cc(F)ccc2F)[nH]c(=O)c1` (single isomer, unassigned) [Example 14_1], 0.02 µM; in that of `C[C@@H]1COCCN1c1cc(N2CCN(C(=O)C3CCCO3)CC2C(F)(F)F)[nH]c(=O)c1` (single isomer, unassigned) [Example 48_1], 0.01 µM. As for `C[C@@H]1COCCN1c1cc(N2CCN(C)CC2c2ccccc2)[nH]c(=O)c1` (stereo partly drawn) [Example 31, 4-[(3R)-3-methylmorpholin-4-yl]-6-(4-methyl-2-phenyl-piperazin-1-yl)-1H-pyridin-2-one], the concentration for half-maximal inhibition (IC50) stood at 0.3 µM. As for `C[C@@H]1COCCN1c1cc(N2CCOCC2c2ccccc2)[nH]c(=O)c1` (single isomer, unassigned) [Example 26_2], the figure is 0.3 µM. As for `C[C@@H]1COCCN1c1cc(N2CCCC2c2cnn(C)c2)[nH]c(=O)c1` (single isomer, unassigned) [Example 19_1], the figure is 0.3 µM. As to `C[C@@H]1COCCN1c1cc(N2CCOCC2c2ccccc2)[nH]c(=O)c1` (mixture of isomers) [Example 26, (R) and (S) 4-[(3R)-3-methylmorpholin-4-yl]-6-(3-phenylmorpholin-4-yl)-1H-pyridin-2-one], the concentration for half-maximal inhibition (IC50) turned out to be 0.06 µM. As for `C[C@@H]1COCCN1c1cc(N2CCCC2c2ccccn2)[nH]c(=O)c1` (single isomer, unassigned) [Example 38_1], the figure is 0.05 µM. Turning to `C[C@@H]1COCCN1c1cc(N2CCCC2c2cc(F)ccc2F)[nH]c(=O)c1` (single isomer, unassigned) [Example 14_2], the IC50 was found to be 0.05 µM.

`CC1COCCN1c1cc(N2CCOC[C@H]2C)cc(=O)[nH]1` (mixture of isomers) [Example 24, (R) and (S) 4-[(3R)-3-methylmorpholin-4-yl]-6-(3-methylmorpholin-4-yl)-1H-pyridin-2-one]: the half-inhibitory concentration (IC50) is 0.03 µM. `C[C@@H]1COCCN1c1cc(N2CCCC2c2cccc(OC(F)(F)F)c2)[nH]c(=O)c1` (mixture of isomers) [Example 15, (R) and (S) 4-[(3R)-3-methylmorpholin-4-yl]-6-[2-[3-(trifluoromethoxy)phenyl]pyrrolidin-1-yl]-1H-pyridin-2-one]: the IC50 was 0.06 µM. In the case of `C[C@@H]1COCCN1c1cc(N2CCS(=O)(=O)CC2)[nH]c(=O)c1` [Example 28, 6-(1,1-dioxo-1,4-thiazinan-4-yl)-4-[(3R)-3-methylmorpholin-4-yl]-1H-pyridin-2-one] it was 0.4 µM; in that of `C[C@@H]1COCCN1c1cc(N2CCCCC2C(F)(F)F)[nH]c(=O)c1` (single isomer, unassigned) [Example 25_2], 0.08 µM. As for `C[C@@H]1COCCN1c1cc(N2CCN(C)CC2C(F)(F)F)[nH]c(=O)c1` (stereo partly drawn) [Example 49, 4-[(3R)-3-methylmorpholin-4-yl]-6-[4-methyl-2-(trifluoromethyl)piperazin-1-yl]-1H-pyridin-2-one], the figure is 0.03 µM; as for `C[C@@H]1COCCN1c1cc(N2CCCC2c2cccc(C(F)(F)F)c2)[nH]c(=O)c1` (single isomer, unassigned) [Example 16_1], 0.03 µM. On to `CCn1ccc(C2CCCN2c2cc(N3CCOC[C@H]3C)cc(=O)[nH]2)n1` (mixture of isomers) [Example 21, (R) and (S) 6-[2-(1-ethylpyrazol-3-yl)pyrrolidin-1-yl]-4-[(3R)-3-methylmorpholin-4-yl]-1H-pyridin-2-one], for which the IC50 was 0.06 µM.

Take `Cn1c(N2CCCC2c2ccccc2)cc(N2CCOCC2)cc1=O` (stereo not shown) [Example 2, 1-methyl-4-morpholino-6-(2-phenylpyrrolidin-1-yl)pyridin-2-one]: the IC50 stood at 0.1 µM. As for `Cc1cc(C2CCCN2c2cc(N3CCOC[C@H]3C)cc(=O)[nH]2)nn1C` (single isomer, unassigned) [Example 20_2], the figure is 0.2 µM. As for `C[C@@H]1COCCN1c1cc(N2CCCC2c2cccc(F)c2)[nH]c(=O)c1` (single isomer, unassigned) [Example 13_1], the figure is 0.06 µM. As for `C[C@@H]1COCCN1c1cc(N2CCCC2c2cccc(N(C)C)c2)[nH]c(=O)c1` (mixture of isomers) [Example 23, (R) and (S) 6-[2-[3-(dimethylamino)phenyl]pyrrolidin-1-yl]-4-[(3R)-3-methylmorpholin-4-yl]-1H-pyridin-2-one], the figure is 0.03 µM; as for `Cc1cc(C2CCCN2c2cc(N3CCOC[C@H]3C)cc(=O)[nH]2)nn1C` (mixture of isomers) [Example 20, (R) and (S) 6-[2-(1,5-dimethylpyrazol-3-yl)pyrrolidin-1-yl]-4-[(3R)-3-methylmorpholin-4-yl]-1H-pyridin-2-one], 0.2 µM.

As to `Cc1ccc(C2CCCN2c2cc(N3CCOC[C@H]3C)cc(=O)[nH]2)o1` (mixture of isomers) [Example 22, (R) and (S) 6-[2-(5-methyl-2-furyl)pyrrolidin-1-yl]-4-[(3R)-3-methylmorpholin-4-yl]-1H-pyridin-2-one], the IC50 came out at 0.06 µM.
